Source: patent US9598361B1, “Amino substituted acetamide derivative” (KING SAUD UNIVERSITY, priority 2016, dated 2017)
Where two headings read alike, the source gives them in different places.

Key:
[1] = tested on: absolute ethanol-induced ulcer; experiment: Anti-ulcerogenic activity, absolute ethanol-induced ulcer model; assay type: in vivo, male Wistar rats; conditions: for inhibition in vivo at 100 mg/kg / inhibition in vivo at 50 mg/kg: Rattus norvegicus, po; for score: lesion score 0-5, rats; for inhibition in vivo at 50 mg/kg: read-out: % protection
Procedure: (§1) The biological activities of the investigational compounds (CP1-8) were investigated as follows. Swiss albino mice of both sexes (26-30 g) and male Wistar rats (180-200 g) were purchased from the animal house of King Saud University, KSA. Animals were housed in standard polypropylene cages with wire mesh top and maintained under standard conditions (temperature 23±1.0° C., humidity 55±10%, 12 h light/12 h dark cycle). They were fed a standard pellet diet with water ad libitum and were allowed to adapt to the laboratory environment for one week before experimentation.
Evaluation of the anti-ulcerogenic activity was carried out using absolute ethanol-induced ulcer model as described by Bighettia et al. (2005). Eighteen male Wistar rats were divided into 3 groups each of 6 rats. Group 1 received the vehicle and served as control ulcer, Group 2 received ranitidine (100 mg/kg) and served as standard, and Groups 3 received the target compound at a dose of 50 mg/kg for CP1-7 and a dose of 100 mg/kg for CP8.
Rats of all groups were fasted for 24 h then all medications were administered orally. One hour after treatment, the animals received an oral dose of absolute ethanol (1 ml/200 g) and then sacrificed one hour later, by ether inhalation, the stomachs were rapidly removed, opened along their greater curvature and gently rinsed under running tap water.
Number of lesions in the glandular part of the stomach were measured under an illuminated magnifying microscope (10×). Long lesions were counted and their lengths were measured. Petechial lesions were counted, and then each five petechial lesions were taken as 1 mm of ulcer.
The lesion scores in the mucosal lesions were quantified by the scoring system (0-5) 0=no damage, 1=Local edema and inflammation without ulcers; 2=One ulcer without inflammation; 3=one to two ulcers with inflammation & lesion diameter <1 cm; 4=More than two ulcers with lesion diameter 1-2 cm; 5=Sever ulceration with lesion diameter >2 cm (Morris et al., 1989).
In order to calculate the Ulcer Index (mm), the sum of the total length of long ulcers and petechial lesions in each group of rats was divided by its number. The curative ratio was determined according to the formula: […]

[2] = tested on: acetic acid induced colitis; experiment: Anti-ulcerative colitis activity, acetic acid induced colitis; assay type: in vivo, rats; conditions: for % Protection of control colitis: Table 5, CP8 100 mg/kg; for inhibition in vivo at 50 mg/kg: Rattus norvegicus, po, 120 h, read-out: % Protection; for Wt/l: colon wet weight/length ratio; for effect versus dexamesathone in reducing all colitis parameters (in words): 50 mg/kg versus dexamesathone 0.1 mg/kg
Procedure: as §1
Groups of animals each of 6 rats were used for assessing the anti-ulcerative colitis activity. The first group received dexamesathone at dose 0.1 mg/kg orally to serve as standard; two other groups received water orally and served as normal control and control colitis. Other groups received the tested compounds CP 1-7 at a dose 50 mg/kg and tested compound CP 8 at a dose of 100 mg/kg. Ulcerative colitis was induced by slowly infusion of 2 mL (4%, v/v) acetic acid in saline into the colon through the catheter. Two hours after the induction of colitis, animals received the 1st dose of all medication, then all groups received medication for 5 consecutive days, two hours after the last dose, animals were sacrificed by ether anesthesia, colonic segments (8 cm in length and 3 cm proximal to the anus) were excised, opened and were used for macroscopic scoring (Awaad et al., 2013).
The colonic lesions were assessed as follows. The colon specimens were weighted and wet weight/length ratio was calculated for all the rats. The specimens were examined under a dissecting microscope and the mucosal lesions were quantified by the scoring system (0-5) given by Awaad et al., (2013) after some modifications. The lesion scores were determined as follows: 0=no damage, 1=Local edema and inflammation without ulcers; 2=One ulcer without inflammation; 3=one to two ulcers with inflammation & lesion diameter <1 cm; 4=More than two ulcers with lesion diameter 1-2 cm; 5=Sever ulceration with lesion diameter >2 cm.
The ulcer area was measured using plane glass square. Each cell on the glass square was 1 mm^2 in area and the number of cells was counted and the ulcer area was determined for each colon. The ulcer index was measured by summing the lesion score and the ulcer area for each colon specimen (Awaad et al, 2013).

[3] = tested on: liver and kidney functions; experiment: Effect on liver and kidney functions; assay type: in vivo, Male Wister rats
Procedure: The effect on liver and kidney functions using the derivatives were investigated as follows. Male Wister rats were divided into 2 groups, each of 10 rats. The 1st group was left as a control and administered the vehicle orally, while the other group was orally administered the synthesized compounds in a dose of 50 mg/kg (for CP 1-7) or a dose of about 100 mg/kg (for CP 8). After the examination period, 6 h after the last dose blood samples were collected from the orbital plexus of rats. Samples were left to clot at room temperature for 30 min then centrifuged at 1000 rpm for 20 min.
The collected sera were used for determination of the activity of both (AST) aspirate aminotransferase and (ALT) alanine aminotransferase as liver markers. In addition, levels of blood urea, serum creatinine were also estimated as kidney markers (Awaad et al., 2013).

[4] = Table 3, protection of control ulcer, oral 100 mg/kg
[5] = Table 7, rat serum, oral 100 mg/kg, mean ± SD, n = 10
[6] = Table 7, rats, oral 100 mg/kg, mean ± SD, n = 10
[7] = rats, oral 50 mg/kg (CP 1-7) or 100 mg/kg (CP 8)
[8] = Table 2, oral, CP-1-7 50 mg/kg, ranitidine 100 mg/kg
[9] = Table 4, oral 5 days, CP-1-7 50 mg/kg, dexamethasone 0.1 mg/kg
[10] = Table 6, rat serum, oral 50 mg/kg, 6 h after last dose, mean ± SD, n = 10
[11] = Table 6, rats, oral 50 mg/kg, 6 h after last dose, mean ± SD, n = 10
[12] = Table 2, protection of control ulcer, oral, CP-1-7 50 mg/kg, ranitidine 100 mg/kg
[13] = Table 4, protection of control colitis, CP-1-7 50 mg/kg, dexamethasone 0.1 mg/kg

Structure (SMILES)	score [1, 8]	Wt/l [2, 9]	ALT [3, 10] [U/l]	AST [3, 10] [U/l]	Serum Creatinine [3, 11] [mg/dL]	melting point [°C]	inhibition in vivo at 50 mg/kg [1, 12] [%]	inhibition in vivo at 50 mg/kg [2, 13] [%]	Blood Urea [3, 11] [mg/dL]	other results
NS(=O)(=O)c1ccc(NC(=O)CNc2ccccc2C(=O)O)cc1 [CP8, 2-(2-Hydroxycarbonylphenylamino)-N-(4-aminosulphonylphenyl)acetamide]	–	–	–	–	–	–	–	–	–	effect versus ranitidine in reducing ulcer index and ulcer score (in words) ([1]; CP8 100 mg/kg versus ranitidine 100 mg/kg): significantly more effective than the standard; inhibition in vivo at 100 mg/kg [1, 4]: 87.1%; score ([1]; Table 3, oral 100 mg/kg): 1.20; % Protection of control colitis ([2]; dexamethasone 0.1 mg/kg): 64.2%; ALT [3, 5]: 39.70 ± 0.22 U/l; AST [3, 5]: 66.28 ± 0.40 U/l; Blood Urea [3, 6]: 68.60 ± 1.9 mg/dL; Creatinine [3, 6]: 0.86 ± 0.03 mg/dL; liver functions (activity of AST and ALT), hepatotoxic manifestation (in words) [3, 7]: didn't reveal hepatotoxic manifestation; nephrotoxic manifestations (in words) [3, 7]: no apparent nephrotoxic manifestations; liver and kidney functions versus control (in words) ([3]; rats, oral 100 mg/kg, 0.05 level of probability): not affected
N#CC1(c2ccccc2)CCN(CC(=O)Nc2ccc(S(N)(=O)=O)cc2)CC1 [CP-1, 2-[(4-Cyano-4-phenyl)piperidinyl]-N-(4-aminosulphonylphenyl)acetamide]	3.20	0.79 ± 0.08	35.77 ± 1.60	44.43 ± 1.57	0.88 ± 0.03	196 to 198	–	–	–	inhibition in vivo at 50 mg/kg [1]: 55.5%; inhibition in vivo at 50 mg/kg [2]: 31.7%; effect on blood urea concentration (in words) ([3]; rats, oral 50 mg/kg): slightly elevate
NS(=O)(=O)c1ccc(NC(=O)CN2CCC(O)(c3ccccc3)CC2)cc1 [CP-2, 2-[(4-Hydroxy-4-phenyl)piperidinyl]-N-(4-aminosulphonylphenyl)acetamide]	3.20	0.74 ± 0.02	–	–	–	221 to 223	71.9	49.1	–	ALT ([3]; rat, in vivo, po, 50 mg/kg): 39.70 ± 0.22 U/l; AST ([3]; rat, in vivo, po, 50 mg/kg): 66.28 ± 0.40 U/l; Blood Urea ([3]; rat, in vivo, po, 50 mg/kg): 52.55 ± 1.24 mg/dL; Serum Creatinine ([3]; rat, in vivo, po, 50 mg/kg): 0.86 ± 0.03 mg/dL
NS(=O)(=O)c1ccc(NC(=O)CN2CCC(c3ccc(Cl)cc3)CC2)cc1 [CP-3, 2-[4(4-Chlorophenyl)piperidinyl]-N-(4-aminosulphonylphenyl)acetamide]	2.20	0.64 ± 0.05	36.87 ± 1.28	44.16 ± 1.57	–	270 to 272	90.3	64.2	46.02 ± 1.10	effect versus dexamesathone in reducing all colitis parameters (in words) [2]: significantly more effective than dexamesathone; effect on serum creatinine (in words) ([3]; rats, oral 50 mg/kg): slightly elevated
NS(=O)(=O)c1ccc(NC(=O)CN2CCC(N3CCCCC3)CC2)cc1 [CP-4, 2-[4-(1-Piperidino)piperidinyl]-N-(4-aminosulphonylphenyl)acetamide]	2.00	0.84 ± 0.02	36.87 ± 1.28	44.16 ± 1.57	–	215 to 217	97.7	25.3	47.96 ± 0.84	score ([2]; Table 4, lesion score 0-5, oral 5 days, CP-1-7 50 mg/kg, dexamethasone 0.1 mg/kg): 3.00 ± 0.63; effect on serum creatinine (in words) ([3]; rats, oral 50 mg/kg): slightly elevated
COc1ccc(C2CCN(CC(=O)Nc3ccc(S(N)(=O)=O)cc3)CC2)cc1 [CP-5, 2-[4(4-Methoxyphenyl)piperidinyl]-N-(4-aminosulphonylphenyl)acetamide]	2.40	0.75 ± 0.02	36.35 ± 1.26	44.09 ± 1.25	0.86 ± 0.07	175 to 177	83.6	22.3	55.92 ± 0.55	–
Cc1cccc(N2CCN(CC(=O)Nc3ccc(S(N)(=O)=O)cc3)CC2)c1C [CP-6, 2-[4(2,3-Xylyl)piperazinyl]-N-(4-aminosulphonylphenyl)acetamide]	3.00	0.71 ± 0.05	36.02 ± 1.58	44.7 ± 1.66	0.83 ± 0.08	241 to 243	88.5	30.6	51.00 ± 0.89	–
Cc1cc(NCC(=O)Nc2ccc(S(N)(=O)=O)cc2)c2ccccc2n1 [CP-7, 2-(2-Methylquinolin-4-ylamino)-N-(4-aminosulphonylphenyl)acetamide]	3.60	0.49 ± 0.02	36.33 ± 1.35	46.16 ± 1.48	0.85 ± 0.09	> 300	64.1	66.8	53.00 ± 0.14	effect versus dexamesathone in reducing all colitis parameters (in words) [2]: significantly more effective than dexamesathone
C[C@@H]1C[C@H]2[C@@H]3CCC4=CC(=O)C=C[C@]4(C)[C@@]3(F)[C@@H](O)C[C@]2(C)[C@@]1(O)C(=O)CO [Dexamethasone, reference compound]	–	0.52 ± 0.07	–	–	–	–	–	59.3	–	% Protection of control colitis ([2]; dexamethasone 0.1 mg/kg): 60%
CNC(=C[N+](=O)[O-])NCCSCc1ccc(CN(C)C)o1 [Ranitidine, ranitidine, reference compound]	2.20	–	–	–	–	–	49.2	–	–	inhibition in vivo at 100 mg/kg [1, 4]: 58.8%; score ([1]; Table 3, oral 100 mg/kg): 2.20
